In patent publication US20180333538A1, “INJECTION APPARATUS” (Daicel Corporation, priority 2015, published 2018):
Read-outs that look alike come from different tables or passages of the source.

System: intradermal layer which is skin tissue of the rabbit in vivo
Conditions: 100 μl intradermal
Method: Moreover, an object of the following experimental conditions is to confirm, when an inflammatory substance is injected to the intradermal layer which is skin tissue of the rabbit in vivo, a presence or absence of an inflammatory response (formation of erythema and eschar, and formation of edema) for each elapsed time (after 24 hours, 48 hours, and 72 hours) . In addition, the injection of an injection solution with the needled injector was performed at a constant pressurization rate.
16-week-old male Std: JW/CSK rabbit, already shaved and smooth skin-verified, was used.
An aqueous solution of the following inflammatory substance was used as the dosing liquid and the injection solution.
Inflammatory substance: acetic acid, diluted to a predetermined concentration with distilled water, dose 100 μl
Definitions of numerical values representing the experimental results in the tables with respect to each of erythema and eschar formation and edema formation are as follows.
1 Very slight erythema (barely perceptible erythema)
2 Slight erythema (clearly perceptible erythema)
3 Moderate to severe erythema
4 Severe erythema to eschar formations
1 Very slight edema (barely perceptible edema)
2 Slight edema (edema with edges perceptible due to definite raising)
3 Moderate edema (raised approximately 1 mm)
4 Severe edema (raised 1 mm or more and extending beyond the area of exposure)

[1] = Comparative example (needled injector), acetic acid 0.25%, 24 h
[2] = Comparative example (needled injector), acetic acid 0.25%, 48 h
[3] = Comparative example (needled injector), acetic acid 0.25%, 72 h
[4] = Comparative example (needled injector), acetic acid 0.5%, 24 h
[5] = Comparative example (needled injector), acetic acid 0.5%, 48 h
[6] = Comparative example (needled injector), acetic acid 0.5%, 72 h
[7] = Comparative example (needled injector), acetic acid 1.0%, 24 h
[8] = Comparative example (needled injector), acetic acid 1.0%, 48 h
[9] = Comparative example (needled injector), acetic acid 1.0%, 72 h
[10] = Comparative example (needled injector), acetic acid 1.5%, 24 h
[11] = Comparative example (needled injector), acetic acid 1.5%, 48 h
[12] = Comparative example (needled injector), acetic acid 1.5%, 72 h
[13] = Comparative example (needled injector), acetic acid 2.0%, 24 h
[14] = Comparative example (needled injector), acetic acid 2.0%, 48 h
[15] = Comparative example (needled injector), acetic acid 2.0%, 72 h
[16] = Injector 1, acetic acid 0.25%, 24 h
[17] = Injector 1, acetic acid 0.25%, 48 h
[18] = Injector 1, acetic acid 0.25%, 72 h
[19] = Injector 1, acetic acid 0.5%, 24 h
[20] = Injector 1, acetic acid 0.5%, 48 h
[21] = Injector 1, acetic acid 0.5%, 72 h
[22] = Injector 1, acetic acid 1.0%, 24 h
[23] = Injector 1, acetic acid 1.0%, 48 h
[24] = Injector 1, acetic acid 1.0%, 72 h
[25] = Injector 1, acetic acid 1.5%, 24 h
[26] = Injector 1, acetic acid 1.5%, 48 h
[27] = Injector 1, acetic acid 1.5%, 72 h
[28] = Injector 1, acetic acid 2.0%, 24 h
[29] = Injector 1, acetic acid 2.0%, 48 h
[30] = Injector 1, acetic acid 2.0%, 72 h

CC(=O)O [Acetic acid, acetic acid]
1: Erythema etc. [1] | Erythema etc. [2] | Erythema etc. [3] | Erythema etc. [4] | Erythema etc. [5] | Erythema etc. [6] | Edema [7] | Erythema etc. [7] | Edema [8] | Erythema etc. [8] | Edema [9] | Erythema etc. [9] | Erythema etc. [10] | Erythema etc. [11] | Erythema etc. [12] | Erythema etc. [13] | Erythema etc. [14] | Erythema etc. [15] | Erythema etc. [16] | Erythema etc. [17] | Erythema etc. [18] | Erythema etc. [19] | Erythema etc. [20] | Erythema etc. [21] | Erythema etc. [22] | Erythema etc. [23] | Erythema etc. [24] | Erythema etc. [25] | Erythema etc. [26] | Erythema etc. [27] | Edema [28] | Erythema etc. [28] | Edema [29] | Erythema etc. [29] | Edema [30] | Erythema etc. [30]
0: Edema [1] | Edema [2] | Edema [3] | Edema [4] | Edema [5] | Edema [6] | Edema [16] | Edema [17] | Edema [18] | Edema [19] | Edema [20] | Edema [21] | Edema [22] | Edema [23] | Edema [24] | Edema [25] | Edema [26] | Edema [27]
3: Edema [13] | Edema [14]
2: Edema [10] | Edema [11] | Edema [12] | Edema [15]
